# Counter-ions that a name gives are not always drawn.
# Columns and labels:
# [1] = target: serotonin 5-HT2C receptor (Homo sapiens, UniProt P28335, I156V/I160V/N158S); assay: cell-based; conditions: CHO, read-out: ratio to maximum response by 5-HT (1 μM)
# [2] = system: female spinal cord transected rat whose hypogastric nerve and pudendal nerves were bilaterally cut; assay: Urethral closure response induced by increased bladder pressure in rat with hypogastric and pudendal nerves cut; assay type: in vivo
# Protocol: SD female rats (body weight 230-274 g) were anesthetized with urethane (Wako Pure Chemical Industries, Ltd.), and the spinal cord was cut at T8-9 level to eliminate the micturition reflex. During the operation, halothane (Takeda Pharmaceutical Company Limited) anesthesia was added as necessary. The abdomen was opened, the bladder neck was ligated with a suture thread, and then, the hypogastric nerve and the pudendal nerves were bilaterally cut. A catheter (PE-90, Clay Adams) was inserted in the bladder, and the other end of the bladder catheter was connected to the pressure transducer and an aquatic reservoir (60 ml syringe) of saline via a three-way cock. A microchip transducer catheter (SPR-524, Millar Instruments Inc.) was inserted from the urethral orifice toward the bladder, and the transducer part was adjusted to be in the urethra at 10.0-15.0 mm from the urethral orifice using the scale on the catheter surface. The topical changes in the urethral pressure (hereinafter to be referred to as urethral pressure for convenience) measured by the microchip transducer were input into a computer via an amplifier (BP Amp; ADINSTRUMENTS) and a data analyzer (Powerlab 4/25; ADINSTRUMENTS; sampled at 1000 Hz), and recorded on a hard disk. […] The response of the urethra induced by the increased bladder pressure was repeatedly measured, and the average value of the last two measures was taken as the value before drug administration. The evaluation item was reflective urethral closure response, and the average urethral pressure for 30 seconds before increasing the bladder pressure and 30 seconds when the bladder pressure was raised to 50 cm was calculated. Then, the value before bladder pressure increase was subtracted from the value during bladder pressure increase and taken as the urethral closure response. […] The drug was dissolved in saline with dimethylformamide, and intravenously administered at 1 ml/kg.
# Sequence of serotonin 5-HT2C receptor (P28335 33-458 I156V/N158S/I160V limits assumed): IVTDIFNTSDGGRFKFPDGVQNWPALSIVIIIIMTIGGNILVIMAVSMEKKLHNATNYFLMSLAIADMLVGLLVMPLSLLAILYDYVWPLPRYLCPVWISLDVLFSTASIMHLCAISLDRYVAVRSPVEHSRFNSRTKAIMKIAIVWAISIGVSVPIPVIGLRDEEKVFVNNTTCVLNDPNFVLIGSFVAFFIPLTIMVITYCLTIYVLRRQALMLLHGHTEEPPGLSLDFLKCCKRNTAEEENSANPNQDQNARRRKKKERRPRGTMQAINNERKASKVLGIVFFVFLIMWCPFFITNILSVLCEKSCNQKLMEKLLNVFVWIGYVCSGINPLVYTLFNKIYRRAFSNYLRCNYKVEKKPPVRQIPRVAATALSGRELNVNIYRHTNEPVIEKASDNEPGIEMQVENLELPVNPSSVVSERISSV
Compound,activation at 1 µM [1],further results
"c1cc2c(c(C3CC3)c1)OCCNC2 [Example 64, 9-cyclopropyl-2,3,4,5-tetrahydro-1,4-benzoxazepine hydrochloride]",94.6%,
"FC1(F)CCN(c2cccc3c2OCCNC3)C1 [Example 58, 9-(3,3-difluoropyrrolidin-1-yl)-2,3,4,5-tetrahydro-1,4-benzoxazepine]",95.5%,
"Clc1ccccc1-c1cccc2c1OCCNC2 [Example 10, 9-(2-chlorophenyl)-2,3,4,5-tetrahydro-1,4-benzoxazepine hydrochloride]",94%,
"c1cc2c(cc1N1CCOCC1)OCCNC2 [Example 1, 8-(morpholin-4-yl)-2,3,4,5-tetrahydro-1,4-benzoxazepine hydrochloride]",95.4%,
"C1=C(c2cccc3c2OCCNC3)CCC1 [Example 26, 9-(cyclopenta-1-en-1-yl)-2,3,4,5-tetrahydro-1,4-benzoxazepine hydrochloride]",101%,
"Cl.c1cc2c(c(C3CCC3)c1)OCCNC2 [Example 63, 9-cyclobutyl-2,3,4,5-tetrahydro-1,4-benzoxazepine hydrochloride]",97.6%,"Urethral closure response, after drug administration ([2]; 3 mg/kg i.v., 10 min after administration, n=6, bladder pressure raised to 50 cm H2O): 6.2 ± 0.9 cm H2O; Urethral closure response, increase ([2]; 3 mg/kg i.v., difference between after and before drug administration, P < 0.001 vs vehicle): 4.4 ± 0.7 cm H2O; Urethral closure response, before drug administration ([2]; baseline of the 3 mg/kg i.v. group, n=6, bladder pressure raised to 50 cm H2O): 1.8 ± 0.5 cm H2O; effect on urethral closure response induced by increased bladder pressure (in words) ([2]; intravenous administration, bladder pressure 0 to 50 cm H2O): significantly increased the urethral closure response"
"CCN(CC)c1ccc2c(c1)OCCNC2 [Example 5, N,N-diethyl-2,3,4,5-tetrahydro-1,4-benzoxazepine-8-amine dihydrochloride]",91.9%,
"CC(C)N(C)c1ccc2c(c1)OCCNC2 [Example 4, N-isopropyl-N-methyl-2,3,4,5-tetrahydro-1,4-benzoxazepine-8-amine dihydrochloride]",100%,
"c1cc2c(cc1N1CCCCC1)OCCNC2 [Example 3, 8-(piperidin-1-yl)-2,3,4,5-tetrahydro-1,4-benzoxazepine dihydrochloride]",94.3%,
"c1cc2c(c(-c3ccoc3)c1)OCCNC2 [Example 15, 9-(3-furyl)-2,3,4,5-tetrahydro-1,4-benzoxazepine hydrochloride]",96.2%,
"c1cc2c(cc1N1CCCC1)OCCNC2 [Example 2, 8-(pyrrolidin-1-yl)-2,3,4,5-tetrahydro-1,4-benzoxazepine dihydrochloride]",93.1%,
"c1cc2c(c(C3CCOC3)c1)OCCNC2 (centres unmarked) [Example 55, 9-(tetrahydrofuran-3-yl)-2,3,4,5-tetrahydro-1,4-benzoxazepine hydrochloride]",103%,
"CCN(C)c1ccc2c(c1)OCCNC2 [Example 6, N-ethyl-N-methyl-2,3,4,5-tetrahydro-1,4-benzoxazepine-8-amine dihydrochloride]",102%,
"FC(F)(F)c1ccccc1-c1cccc2c1OCCNC2 [Example 12, 9-[2-(trifluoromethyl)phenyl]-2,3,4,5-tetrahydro-1,4-benzoxazepine hydrochloride]",93.6%,
"CC(c1cccc2c1OCCNC2)C(F)(F)F (centres unmarked) [Example 59, 9-(2,2,2-trifluoro-1-methylethyl)-2,3,4,5-tetrahydro-1,4-benzoxazepine hydrochloride]",95.2%,
"Cc1ccccc1-c1cccc2c1OCCNC2 [Example 11, 9-(2-methylphenyl)-2,3,4,5-tetrahydro-1,4-benzoxazepine hydrochloride]",92.7%,
"c1cc2c(c(-c3ccsc3)c1)OCCNC2 [Example 16, 9-(3-thienyl)-2,3,4,5-tetrahydro-1,4-benzoxazepine hydrochloride]",99.1%,
"c1cc2c(c(N3CCCC3)c1)OCCNC2 [Example 7, 9-(pyrrolidin-1-yl)-2,3,4,5-tetrahydro-1,4-benzoxazepine dihydrochloride]",107%,
"c1ccc(-c2cccc3c2OCCNC3)cc1 [Example 9, 9-phenyl-2,3,4,5-tetrahydro-1,4-benzoxazepine hydrochloride]",93.1%,

# Reference: patent publication US8247403B2, “Benzoxazepine derivatives and use thereof” (Takeda Pharmaceutical Company Limited, priority 2007, dated 2012)
